Test results: US20100168112A1, “2-Substituted and 4-substituted aryl nitrone compounds” (RENOVIS, INC., priority 2004, published 2010)
Where two headings read alike, the source gives them in different places.

Experiments:
[1] = system: 1K1C rats; experiment: Kidney ischemia-reperfusion injury, one-kidney one-clip (1K1C) model, fractional excretion of sodium; assay type: in vivo; details: mean ± SEM
Experimental: Rats were individually housed in a modified cage that was equipped with a raised mesh bottom to separate the fecal product from urine. Before the test, all animals were withheld from food and water overnight. In the morning of the test, normal saline (i.e., 0.9% sodium chloride) was given via oral gavage at […] (Lipschitz, W. L. Hadidian, Z. & Kerpcar, A.: Bioassay of diuretics., J. Pharmacol. Exp. Ther., 79: 97-110, 1943). Samples of blood and urine were collected (standard procedures) at time points (1 and/or 5 hrs after fluid intake) from animals, centrifuged, and kept at 4 degrees until analysis for factors that reflect renal functions. Sodium and creatinine levels were determined by Quality Clinical Labs, Inc. (Mountain View, Calif.). Sodium concentrations were determined by ion selective electrode (standard procedures). Creatinine levels were determined by the alkaline picrated (Jaffe) reaction as described (Liobat-Estelles, M., Sevillano-Cabeja, A. & Campines-Falco, P.: Kinetic chemometric studies of the determination of creatinine using the Jaffe reaction. Part I: kinetics of the reaction; analytical conclusion. Analyst, 11: 597-602, 1989). Fractional excretion of sodium (FENa+), a parameter for ion-handling by the kidney, was calculated, using the following equation: =UNa×Pcr/PNa×Ucr, where UNa is the concentration of sodium in urine; Pcr is the plasma concentration of creatinine; PNa is the […]; and Ucr is the concentration of creatinine in the urine.
After the data for the calculation of basal levels of FENa+ was obtained (Table 16), rats were anesthetized with pentobarbital (65 mg/kg, i.p.). The abdominal region was shaved with a safety razor and sterilized with povidone iodine solution. A midline incision was made and the right kidney was exposed. The right renal pedicle and right urether were both ligated twice with 4-0 sutures and cut between the ligations. The right kidney was then removed. 7 days later, these rats, after another overnight food-water deprivation, were randomly assigned into 3 groups and orally given either Compound 62 (50 mg/kg, at the volume of 1 ml/kg,p.o.) or its vehicle (i.e., 96% of 0.5% CMC and 4 of 20% Tween 80, at the volume of 1 ml/kg, p.o.) 1 hr before kidney ischemia was produced. Positive controls were performed using quercetin (30 mg/kg, i.p.) given 2 hrs before ischemia (Kahraman, A., Erkasap, N., Serteser, M. & Koken, T.: Protective effect of quercetin on renal ischemia/reperfusion injury in rats. J. Nephrol., 16: 219-224, 2003). Animals were then anesthetized and had their left kidneys exposed after opening of their abdominal cavities. A non-traumatic vascular clamp was applied to the left renal pedicle (the ischemia phase), which was released 45 min later (the reperfusion phase). Lipschitz test was then conducted to measure ion-handling capabilities. Normal saline was orally administered at […] as soon as the vascular clamp was released. 60- and 300-min after reperfusion, plasma and urine samples were obtained.

[2] = Pharmacokinetic evaluation following intravenous and oral administration in rats; assay type: in vivo; details: male, Sprague-Dawley; for Cmax / Tmax / bioavailability: 5 mg/kg; for Cmax: rat plasma; for Cmax / Tmax: oral gavage, 2 mg/mL at 2.5 mL/kg; for clearance / Vd / Tmax / bioavailability / half-life: plasma, rat; for clearance / Vd / half-life: 1 mg/kg; for clearance / Vd: intravenous administration, 1 mg/mL at 1.0 mL/kg; for clearance: read-out: CI (clearance) (converted); for Vd: read-out: Vd (volume of distribution); for bioavailability: po 2 mg/mL at 2.5 mL/kg vs iv 1 mg/mL at 1.0 mL/kg, dose-normalized, read-out: F (%) oral bioavailability; for half-life: intravenous, read-out: T1/2 elimination half life (converted)
Method in brief: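 Male Sprague-Dawley rats, fasted, dosed iv (1 mg/mL formulation, 1.0 mL/kg, jugular or tail vein) or by oral gavage (2 mg/mL suspension, 2.5 mL/kg). Plasma sampled from 2 min to 480 min, some to 24 h, and quantified by LC-MS/MS (MRM). Parameters from noncompartmental analysis.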

[3] = Solubility measurement at pH 7.4; assay type: physicochemical; details: aqueous buffer, thermodynamic from solid, phosphate buffer pH 7.4, room temperature
Experimental: Nitrone compounds (>3 mg) of this invention were mixed with a phosphate buffer at pH 7.4 to make a >0.3 mg/mL mixture. The mixture was vortexed for more than 2 hours and equilibrated over 12 hours at room temperature. The equilibrated mixture was used to saturate a 0.45 μm Tuffryn syringe filter. After saturating, the remainder of the mixture was filtered through the saturated filter. The filtrate was diluted by 1, 10, 100, and 1000 fold and analyzed using a LC/MS/MS method with standard curve ranging from 1 to 1000 ng/mL.

[4] = Microsomal stability in rat liver microsomes; assay type: in vitro ADME; details: rat liver microsomes 0.5 mg/ml, 1 mM NADPH, ~500 ng/ml compound, 37° C.
Experimental: (§1) Frozen Sprague-Dawley rat liver microsomes (RLM) were thawed on ice and gently mixed before use. The final reaction mixture consisted of a nitrone compound of this invention (at ˜500 ng/ml), 1 mM NADPH, and 0.5 mg/ml of RLM protein in 0.1 M PBS (pH7.4), with organic solvent concentration not exceeding 1% (v/v). Per set of incubations, a positive control compound was included. The mixture was first pre-incubated 3 to 5 minutes at 37° C. without NADPH, and the reaction was then initialized by the addition of NADPH and incubated at 37° C. for up to 30 minutes. An aliquot of the reaction mixture was sampled at the initiation of the reaction and at designated time after reaction started. The drawn samples were quenched with acetonitrile, diluted with mobile phase to ensure the detection of test article in the linear range, and analyzed by LC/MS/MS. Half-life or percentage of remaining nitrone compound was calculated using standard methods. A similar method, or a slight variation of it, was used to test the stability of nitrones in human liver microsomes (HLM).

[5] = DPPH free radical-scavenging/antioxidant assay; assay type: biochemical; details: 50 μM DPPH in 80% methanol; 24 h time point; read-out: EC50 (concentration at which a compound reduces by 50% the peak absorbance of DPPH at 520 nm)
Method in brief: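 Compounds diluted 100-fold from DMSO stocks into 50 μM DPPH in 80% methanol; absorbance at 520 nm followed kinetically to steady state, with the 24 h reading used. EC50 interpolated from OD520 versus concentration; Trolox, BHA, PBN and S-PBN as positive controls, DMSO as vehicle.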

[6] = Microsomal stability in human liver microsomes; assay type: in vitro ADME; details: NADPH, 37° C.
Experimental: as §1

[7] = 1K1C rats, Compound 62 50 mg/kg p.o. 1 hr before ischemia, quercetin 30 mg/kg i.p. 2 hrs before, 45 min ischemia
[8] = read-out: Solubility @ pH 7.4 (μg/mL)

| SMILES | 1-hr post-ischemic FENa+ (%) [1, 7] [%] | 5-hr post-ischemic FENa+ (%) [1, 7] [%] | FENa+ (%) pre-surgery (basal) levels ([1]; rats before 1K1C modeling, group baseline) [%] | Cmax [2] [ng/mL] | clearance [2] [mL/min/kg] | Vd [2] [L/kg] | Tmax [2] [min] | bioavailability [2] [%] | half-life [2] [min] | solubility ([3]; read-out: Solubility @ pH 7.4) [µM] | solubility [3, 8] [µg/mL] | % of Nitrone Remaining at 30 min (Rat) [4] [%] | EC50 [5] [µM] | % of Nitrone Remaining at 30 min (Human) [6] [%] |
| --- | --- | --- | --- | --- | --- | --- | --- | --- | --- | --- | --- | --- | --- | --- |
| O=c1c(O)c(-c2ccc(O)c(O)c2)oc2cc(O)cc(O)c12 [Quercetin, quercetin, reference compound] | 0.54 ± 0.02 | 5.23 ± 4.43 | 1.60 ± 0.15 | – | – | – | – | – | – | – | – | – | – | – |
| CC(C)(C)/[N+]([O-])=C/c1ccc(C(=O)O)cc1 [Compound 13, N-tert-Butyl-C-(4-carboxy-phenyl)nitrone] | – | – | – | 5580 | 12.8 | 0.41 | 19.8 | 64.7 | 22.2 | 9040 | 2000 | 100 | – | – |
| CCN(CC)S(=O)(=O)c1ccccc1/C=[N+](\[O-])C1CCCCC1 [Compound 31, N-Cyclohexyl-C-(2-diethylsulfamoylphenyl)nitrone] | – | – | – | – | – | – | – | – | – | 2890 | 978 | 0 | > 1000 | – |
| O=S(=O)(c1ccccc1/C=[N+](\[O-])C1CCCCC1)N1CCCCC1 [Compound 34, N-Cyclohexyl-C-[2-(piperidine-1-sulfonyl)phenyl]nitrone] | – | – | – | – | – | – | – | – | – | 1420 | 500 | 0 | > 1000 | – |
| CC(C)(C)/[N+]([O-])=C/c1ccc(C(N)=O)cc1 [Compound 19] | – | – | – | 3000 | 2.33 | 0.74 | 19.8 | 39.5 | 218 | 14200 | 3130 | 100 | – | – |
| CC(C)(C)/[N+]([O-])=C/c1ccccc1S(=O)(=O)N1CCCCC1 [Compound 33, N-tert-Butyl-C-[2-(piperidine-1-sulfonyl)phenyl]nitrone] | – | – | – | 10 | 36.2 | 1.66 | 4.98 | 0.1 | 32.4 | > 3330 | > 1080 | 0.3 | > 1000 | – |
| CC(C)(C)NC(=O)c1ccc(/C=[N+](\[O-])C(C)(C)C)cc1 [Compound 18, N-(tert-Butyl)-C-[4-(N-tert-butylcarbamoyl)phenyl]nitrone] | – | – | – | 2240 | 21.5 | 0.62 | 25.2 | 75.1 | 19.8 | 1360 | 376 | 100 | – | – |
| CCN(CC)S(=O)(=O)c1ccccc1/C=[N+](\[O-])C(C)(C)C [Compound 30, N-tert-Butyl-C-(2-diethylsulfamoylphenyl)nitrone] | – | – | – | 40 | 93.8 | 4.15 | 4.98 | 1.7 | 30.6 | 2530 | 791 | 7.4 | > 1000 | – |
| O=S(=O)(c1ccccc1/C=[N+](\[O-])Cc1ccccc1)N1CCCCC1 [Compound 35, N-Benzyl-C-[2-(piperidine-1-sulfonyl)phenyl]nitrone] | – | – | – | – | – | – | – | – | – | 107 | 38.4 | 0 | > 1000 | – |
| CC(C)S(=O)(=O)c1ccc(/C=[N+](\[O-])C(C)(C)C)c(S(=O)(=O)C(C)C)c1 [Compound 65, N-tert-Butyl-C-(2,4-bis-2-propanesulfonylphenyl)nitrone] | – | – | – | 339 | 31.5 | 0.98 | 14.4 | 13.7 | 21 | – | – | 78 | 500 to 1000 | 94 |
